Data on 31 compounds can be found in patent US9085527B2, “Fatty acid acylated salicylates and their uses” (Catabasis Pharmaceuticals, Inc., priority 2008, dated 2015).

SMILES strings stand for the structures. A value given as a limit tells only on which side of the number the result lay.

This assay deals with NFκB. Briefly: NFκB-driven luciferase reporter in RAW 264.7 cells challenged with LPS. The assay is classed as cell-based, mouse. To be noted: Mus musculus, RAW264.7, 200 ng/mL LPS for 3 hours, read-out: NFκB Inhibitory Activity, IC50 μM. The procedure: RAW 264.7 cells transfected with an NFκB-driven luciferase reporter are plated in 96 well plates. Cells are treated with Vehicle (0.1% ethanol) or test compounds for 2 hours. As a positive control for inhibition of NFκB signaling, 6 wells are treated with 10 μM dexamethasone. Cells are then challenged with 200 ng/mL LPS for 3 hours in the presence of test compounds. A subset of wells treated with vehicle should remain unstimulated with LPS to determine the floor signal of the assay. NFκB driven luciferase activity is developed by addition of BriteLite luciferase kit (Perkin-Elmer) and measured using a Victor V plate reader. NFκB activity (luciferase activity) for each treatment was normalized to Vehicle wells treated with LPS (% NFκB Response). AlamarBlue was used to monitor cell viability to ensure that inhibition of luciferase signal was not a result of compound cytotoxicity.
RAW 264.7 cells stably expressing a 3×NF-κB response element-driven luciferase reporter were seeded into 96 well plates. After 18 hours, cells were pre-treated with compounds of the invention for 2 hours, and then stimulated with LPS (lipopolysaccharide, 200 ng/mL) or vehicle control for 3 h in the presence of the compounds of the invention. A set of six vehicle was left unstimulated with LPS in order to measure the assay floor. AlamarBlue viability dye (Invitrogen) was added to cells simultaneously with the delivery of LPS (final AlamarBlue concentration of 10%). After the 3 h incubation period with LPS, cell viability was measured by reading fluorescence (excitation 550 nm, emission 595 nm) with a Perkin Elmer Victor V plate reader. Then cell media was aspirated from each well. Luciferase signal was then developed by addition of the Britelite Plus reagent (Perkin Elmer). Luciferase activity was measured with the Perkin Elmer Victor V plate reader. NF-κB activity was expressed as a percent of the vehicle control wells (stimulated with LPS). Compounds were tested at 6 dose point titrations in triplicate to determine IC50 values.
In general terms: A reporter such as luciferase makes a cellular process visible.
Consider `Nc1ccc(O)c(C(=O)O)c1` [Compound 5-ASA, 5-aminosalicylic acid, reference compound], for which the IC50 is more than 200 µM.

As to `CC/C=C\C/C=C\C/C=C\C/C=C\C/C=C\C/C=C\CCC(=O)Nc1cccc(C(=O)O)c1` [Compound 17, 3-(4Z,7Z,10Z,13Z,16Z,19Z)-docosa-4,7,10,13,16,19-hexaenamidobenzoic acid], the IC50 is less than 200 µM.

`CCCCC/C=C\C/C=C\C/C=C\C/C=C\CCCC(=O)Nc1ccc(O)c(C(=O)O)c1` [Compound 18, 2-hydroxy-5-(5Z,8Z,11Z,14Z)-icosa-5,8,11,14-tetraenamidobenzoic acid]: the IC50 is more than 200 µM.

For the compound `CC/C=C\C/C=C\C/C=C\C/C=C\C/C=C\C/C=C\CCC(=O)NC(CC(C)C)C(=O)Oc1ccccc1C(=O)OCC` (stereo not shown) [Compound I-1, ethyl 2-(2-(4Z,7Z,10Z,13Z,16Z,19Z)-docosa-4,7,10,13,16,19-hexaenamido-4-methylpentanoyloxy)benzoate], the IC50 is less than 200 µM.

On to `CC/C=C\C/C=C\C/C=C\C/C=C\C/C=C\C/C=C\CCC(=O)NCCSSCCNC(=O)c1ccccc1O` [Compound I-2, N-(2-(2-(2-(4Z,7Z,10Z,13Z,16Z,19Z)-docosa-4,7,10,13,16,19-hexaenamidoethyl)disulfanyl)ethyl)-2-hydroxybenzamide], for which the IC50 was less than 200 µM.

`CC/C=C\C/C=C\C/C=C\C/C=C\C/C=C\C/C=C\CCC(=O)NCCOCCNC(=O)c1ccccc1O` [Compound I-3, N-(2-(2-(4Z,7Z,10Z,13Z,16Z,19Z)-docosa-4,7,10,13,16,19-hexaenamidoethoxy)ethyl)-2-hydroxybenzamide]: the IC50 was less than 200 µM.

Regarding `CC/C=C\C/C=C\C/C=C\C/C=C\C/C=C\C/C=C\CCC(=O)NCC(C)(C)NC(=O)c1ccccc1O` [Compound I-4, N-(1-(4Z,7Z,10Z,13Z,16Z,19Z)-docosa-4,7,10,13,16,19-hexaenamido-2-methylpropan-2-yl)-2-hydroxybenzamide], the IC50 is less than 200 µM.

As to `CC/C=C\C/C=C\C/C=C\C/C=C\C/C=C\C/C=C\CCC(=O)NCCN(C)CCNC(=O)c1ccccc1O` [Compound I-7, N-(2-((2-(4Z,7Z,10Z,13Z,16Z,19Z)-docosa-4,7,10,13,16,19-hexaenamidoethyl)(methyl)amino)ethyl)-2-hydroxybenzamide], the IC50 is less than 200 µM.

Consider `CC/C=C\C/C=C\C/C=C\C/C=C\C/C=C\C/C=C\CCC(=O)O` [DHA, docosahexaenoic acid, reference compound], for which the half-maximal inhibitory concentration (IC50) was more than 200 µM.

Take `CC/C=C\C/C=C\C/C=C\C/C=C\C/C=C\C/C=C\CCC(=O)NC(CC(C)C)C(=O)Nc1ccc(O)c(C(=O)O)c1` (stereo not shown) [III-6, 5-(2-(4Z,7Z,10Z,13Z,16Z,19Z)-docosa-4,7,10,13,16,19-hexaenamido-4-methylpentanamido)-2-hydroxybenzoic acid]: the IC50 is less than 200 µM.

As to `CC/C=C\C/C=C\C/C=C\C/C=C\C/C=C\C/C=C\CCC(=O)Nc1ccc(O)c(C(=O)OC)c1` [IIIb-1, methyl 5-docosa-4,7,10,13,16,19-hexaenamido-2-hydroxybenzoate], the IC50 is less than 200 µM.

As for `CC/C=C\C/C=C\C/C=C\C/C=C\C/C=C\C/C=C\CCC(=O)NCC(=O)Nc1ccc(O)c(C(=O)O)c1` [IIIf-1, 5-(2-(4Z,7Z,10Z,13Z,16Z,19Z)-docosa-4,7,10,13,16,19-hexaenamidoacetamido)-2-hydroxybenzoic acid], the IC50 is more than 200 µM.

With `CC/C=C\C/C=C\C/C=C\C/C=C\C/C=C\C/C=C\CCC(=O)NC(Cc1ccccc1)C(=O)Nc1ccc(O)c(C(=O)O)c1` (stereo not shown) [IIIf-2, 5-(2-(4Z,7Z,10Z,13Z,16Z,19Z)-docosa-4,7,10,13,16,19-hexaenamido-3-phenylpropanamido)-2-hydroxybenzoic acid], the IC50 was more than 200 µM.

For `CC/C=C\C/C=C\C/C=C\C/C=C\C/C=C\CCCC(=O)Nc1ccc(O)c(C(=O)O)c1` [IIIg-1, 2-hydroxy-5-(5Z,8Z,11Z,14Z,17Z)-icosa-5,8,11,14,17-pentaenamidobenzoic acid], the IC50 was less than 200 µM.

Regarding `CC/C=C\C/C=C\C/C=C\C/C=C\C/C=C\C/C=C\CCC(=O)Oc1ccc(-c2ccc(F)cc2F)cc1C(=O)OCC` [IVc-2, ethyl 4-((4Z,7Z,10Z,13Z,16Z,19Z)-docosa-4,7,10,13,16,19-hexaenoyloxy)-2′,4′-difluorobiphenyl-3-carboxylate], the IC50 is less than 200 µM.

In the case of `CC/C=C\C/C=C\C/C=C\C/C=C\C/C=C\C/C=C\CCC(=O)Oc1ccccc1C(=O)O` [Ia-1, 2-((4Z,7Z,10Z,13Z,16Z,19Z)-docosa-4,7,10,13,16,19-hexaenoyloxy)benzoic acid], the 50% inhibitory concentration (IC50) is more than 200 µM.

Regarding `CC/C=C\C/C=C\C/C=C\C/C=C\C/C=C\C/C=C\CCC(=O)NCCCOC(=O)c1ccccc1OC(C)=O` [Ic-1, 3-(4Z,7Z,10Z,13Z,16Z,19Z)-docosa-4,7,10,13,16,19-hexaenamidopropyl 2-acetoxybenzoate], the IC50 is more than 200 µM.

With `CC/C=C\C/C=C\C/C=C\C/C=C\C/C=C\C/C=C\CCC(=O)OC(C)OC(=O)c1ccccc1OC(C)=O` (stereo not shown) [Ic-12, 1-((4Z,7Z,10Z,13Z,16Z,19Z)-docosa-4,7,10,13,16,19-hexaenoyloxy)ethyl 2-acetoxybenzoate], the IC50 is less than 200 µM.

As to `CC/C=C\C/C=C\C/C=C\C/C=C\C/C=C\C/C=C\CCC(=O)NCCNC(=O)c1ccccc1O` [Ih-1, N-(2-(4Z,7Z,10Z,13Z,16Z,19Z)-docosa-4,7,10,13,16,19-hexaenamidoethyl)-2-hydroxybenzamide], the 50% inhibitory concentration (IC50) is less than 200 µM.

In the case of `CC/C=C\C/C=C\C/C=C\C/C=C\C/C=C\C/C=C\CCC(=O)N1CCN(C(=O)c2ccccc2O)CC1` [Ih-2, (4Z,7Z,10Z,13Z,16Z,19Z)-1-(4-(2-hydroxybenzoyl)piperazin-1-yl)docosa-4,7,10,13,16,19-hexaen-1-one], the IC50 is more than 200 µM.

On to `CC/C=C\C/C=C\C/C=C\C/C=C\C/C=C\C/C=C\CCC(=O)NCCN(C)C(=O)c1ccccc1O` [Ih-3, N-(2-(4Z,7Z,10Z,13Z,16Z,19Z)-docosa-4,7,10,13,16,19-hexaenamidoethyl)-2-hydroxy-N-methylbenzamide], for which the IC50 was less than 200 µM.

For the compound `CC/C=C\C/C=C\C/C=C\C/C=C\C/C=C\C/C=C\CCC(=O)N(C)CCNC(=O)c1ccccc1O` [Ih-4, 2-hydroxy-N-(2-((4Z,7Z,10Z,13Z,16Z,19Z)—N-methyldocosa-4,7,10,13,16,19-hexaenamido)ethyl)benzamide], the IC50 is less than 200 µM.

For the compound `CC/C=C\C/C=C\C/C=C\C/C=C\C/C=C\C/C=C\CCC(=O)NCC(C)NC(=O)c1ccccc1O` (stereo not shown) [Ih-5, N-(1-(4Z,7Z,10Z,13Z,16Z,19Z)-docosa-4,7,10,13,16,19-hexaenamidopropan-2-yl)-2-hydroxybenzamide], the IC50 was less than 200 µM.

As to `CC/C=C\C/C=C\C/C=C\C/C=C\C/C=C\C/C=C\CCC(=O)NC(C)CNC(=O)c1ccccc1O` (stereo not shown) [Ih-6, N-(2-(4Z,7Z,10Z,13Z,16Z,19Z)-docosa-4,7,10,13,16,19-hexaenamidopropyl)-2-hydroxybenzamide], the IC50 was less than 200 µM.

Turning to `CC/C=C\C/C=C\C/C=C\C/C=C\C/C=C\C/C=C\CCC(=O)NC(C)C(C)NC(=O)c1ccccc1O` (stereo not shown) [Ih-7, N-(3-(4Z,7Z,10Z,13Z,16Z,19Z)-docosa-4,7,10,13,16,19-hexaenamidobutan-2-yl)-2-hydroxybenzamide], the IC50 was less than 200 µM.

With `CC/C=C\C/C=C\C/C=C\C/C=C\C/C=C\C/C=C\CCC(=O)NCCNC(=O)c1ccc(C(F)(F)F)cc1O` [Ih-8, N-(2-(4Z,7Z,10Z,13Z,16Z,19Z)-docosa-4,7,10,13,16,19-hexaenamidoethyl)-2-hydroxy-4-(trifluoromethyl)benzamide], the IC50 is more than 200 µM.

`CC/C=C\C/C=C\C/C=C\C/C=C\C/C=C\C/C=C\CCC(=O)NCCNC(=O)c1cc(-c2ccc(F)cc2F)ccc1O` [Ih-9, N-(2-(4Z,7Z,10Z,13Z,16Z,19Z)-docosa-4,7,10,13,16,19-hexaenamidoethyl)-2′,4′-difluoro-4-hydroxybiphenyl-3-carboxamide]: the IC50 was less than 200 µM.

Take `CC/C=C\C/C=C\C/C=C\C/C=C\C/C=C\CCCC(=O)NCCNC(=O)c1cc(-c2ccc(F)cc2F)ccc1O` [Ih-10, 2′,4′-difluoro-4-hydroxy-N-(2-(5Z,8Z,11Z,14Z,17Z)-icosa-5,8,11,14,17-pentaenamidoethyl)biphenyl-3-carboxamide]: the IC50 is less than 200 µM.

Take `CC/C=C\C/C=C\C/C=C\C/C=C\C/C=C\C/C=C\CCC(=O)NCCN1C(=O)CC(SC[C@H](NC(=O)c2ccccc2O)C(=O)OC)C1=O` (stereo partly drawn) [Ih-11, (R)-methyl 3-(1-(2-(4Z,7Z,10Z,13Z,16Z,19Z)-docosa-4,7,10,13,16,19-hexaenamidoethyl)-2,5-dioxopyrrolidin-3-ylthio)-2-(2-hydroxybenzamido)propanoate]: the IC50 is less than 200 µM.

As for `CC/C=C\C/C=C\C/C=C\C/C=C\C/C=C\CCCC(=O)NCCNC(=O)c1ccccc1O` [Ih-14], the half-maximal inhibitory concentration (IC50) is less than 200 µM.

In the case of `CC/C=C\C/C=C\C/C=C\C/C=C\C/C=C\C/C=C\CCC(=O)NC(Cc1ccccc1)C(=O)Oc1ccccc1C(=O)OCC` (stereo not shown) [Ii-3, ethyl 2-(2-(4Z,7Z,10Z,13Z,16Z,19Z)-docosa-4,7,10,13,16,19-hexaenamido-3-phenylpropanoyloxy)benzoate], the IC50 was less than 200 µM.

As a reminder, the IC50 is the midpoint of a concentration-inhibition curve.
